Experimental data taken from patent US20240343734A1, “NOVEL SMALL MOLECULE INHIBITORS OF PUS7 AND USES THEREOF” (City of Hope, priority 2021, published 2024).

System: GSCs
Experiment: GSC growth (several lines, stated for GSCs in general)
Type: cell-based, human
Conditions: 0.5, 1, 2, 4, 8 μM
Experimental: GSCs were derived from newly diagnosed grade IV GBM patients. GSCs and NSCs were maintained in spheres in DMEM-F12 medium supplemented with 2 mM L-glutamine, 27.4 mM HEPES, B27, 20 ng ml^−1 EGF, 20 ng ml^−1 FGF and 5 μg ml^−1 heparin as described (Cui, Q., et al., supra). Established GBM cells were maintained in DMEM medium supplemented with 2 mM L-glutamine and 10% FBS. All cultures were mycoplasma-free as confirmed using MycoAlert PLUS Mycoplasma Detection Kit (Lonza). GSCs or NSCs were treated with PUS7 inhibitors at indicated concentration for 72 h. GSCs were treated with IFNα at indicated doses for 6 days.
GSC growth, sphere formation and limiting dilution assays were performed as described 9 Cui, Q., et al., supra). For growth, GSCs were seeded at 5×10^4 cells per well in 24-well plates and cultured for 7 days. Cell growth was monitored by cell counting using a hemocytometer. For sphere formation, GSCs were seeded at 1 cell per well in 96-well plates or 100 cells per well in 48-well plates and cultured for 2 weeks. Spheres were counted under microscope. For limiting dilution assay, GSCs were seeded into 96-well plates at 1, 5, 10, 20, 50 and 100 cells per well. The number of sphere-forming wells was recorded in two weeks. The limiting dilution analysis was performed using the extreme limiting dilution analysis software at http://bioinf.wehi.edu.au/software/elda.

For NC(=O)c1[nH]nc([C@@H]2O[C@H](CO)[C@@H](O)[C@H]2O)c1O [pyrazofurin], the “dose effect on the growth of PBT003 and PBT707 GSCs (significance)” value (FIG. 17B) was “p<0.0001 for 0.5, 1, 2, 4, and 8 μM conditions” and the “dose effect on the growth of PBT0030, NSC005, and NSC010 (significance)” value (FIG. 17C) was “p<0.0001 for 0.5, 1, 2, 4, and 8 μM conditions for PBT030 only”.
